Data from article PMC5923171, “Novel Zinc-Attenuating Compounds as Potent Broad-Spectrum Antifungal Agents with In Vitro and In Vivo Efficacy” (Antimicrobial Agents and Chemotherapy, 2018).
In brackets after ≈: the same amount, converted by molar mass.

Legend:
[1] = tested on: C. parapsilosis ATCC 22019; experiment: Antifungal susceptibility testing (MIC); format: cell-based, Candida parapsilosis; settings: Lodderomyces parapsilosis, ATCC22019; at least 50% growth inhibition, RPMI, 24 h, 34°C
Method: (§1) Antifungal susceptibility testing was carried out as described previously ([38], [39]), with a few modifications. Briefly, for each yeast or mold growth inhibition assay, frozen stocks of yeast cells or spores were diluted to a final concentration of 0.5 × 10^5 to 2.5 × 10^5 CFU/ml in sterile water. ZAC989, ZAC307, and ZAC623 were dissolved in DMSO to 10 mM stocks from which half-log serial dilutions were prepared. Growth assays were subsequently performed by pipetting 3 μl of compound dissolved in DMSO (giving a final concentration of 1.5% DMSO), 100 μl of cell-spore suspension, and 97 μl of 2× RPMI medium (20.8 g/liter of RPMI 1640 medium, 69.06 g/liter of morpholinepropanesulfonic acid [MOPS], 36 g/liter of glucose) into a microtiter plate that was incubated for 24 h (yeasts) or 48 to 72 h (molds) at 34°C. Fungal growth was determined spectrophotometrically by optical density reading of each well at a wavelength of 492 nm on a Victor X5 (Perkin-Elmer) plate reader. […] Standard errors between repeated experiments were generally below 5%. The growth effect of exogenous addition of various divalent metals was evaluated by performing the antifungal susceptibility assay in the presence of 5 μM ZAC989 or ZAC307 and with increasing concentrations (0.003 to 50 μM) of ZnSO4, CuSO4, (NH4)2Fe(SO4)2, MgCl2, and CaCl2.

Candida albicans = experiment: Abrogation of the antifungal effect by exogenous divalent metals; format: cell-based; settings: for fungal growth rate compared to control cells: in the presence of 100 μM Fe^2+
Method: as §1, with “[…],” for “susceptibility assay in the presence of 5 μM ZAC989 or ZAC307 and with increasing concentrations (0.003 to 50 μM) of ZnSO4, CuSO4, (NH4)2Fe(SO4)2,”

C. krusei ATCC 6258 = experiment: Antifungal susceptibility testing (MIC); format: cell-based, Candida krusei; settings: Pichia kudriavzevii, ATCC6258; at least 50% growth inhibition, RPMI, 24 h, 34°C
Method: as §1

[2] = Potentiometric titration with CaCl2; format: binding; settings: DMSO-water (70:30, vol/vol)
Method: The Zn^2+-binding properties of ZAC307 and ZAC989 were further evaluated using a potentiometric assay, where pH is measured as a function of base (NaOH) added to the compound in either the absence or presence of metal. […] To determine the deprotonation constant, a solution of 1 mM ZAC307 or ZAC989 was titrated with 0.3 M NaOH at constant ionic strength (Fig. 2A and B). In a second run, the same titration was performed in the presence of 0.5 eq of Zn^2+ for ZAC307 and ZAC989. A shift in the pH curve in the presence of the metal (ZAC307, 0.5 eq of Zn^2+ [Fig. 2A]) compared to the absence of the metal (ZAC307 [Fig. 2A]) indicates binding of Zn^2+ to the compound. The measured pH data were analyzed with the Hyperquad program suite, taking into account all relevant equilibrium constants, including also the constants for metal hydroxylation. The analysis provides the pKa values and metal complex stability constants, as well as ligand-metal complex speciation calculation, indicating how many ZAC molecules are involved in coordinating the Zn^2+ ion at different pH values. […] ZAC989 bound copper with the formation constants log β1, log β2, and log β3 of 7.83, 13.37, and 20.62, respectively. The most dominant ZAC989-copper stoichiometry was a 3:1 stoichiometry (Fig. 2E).
Potentiometric measurements were carried out in DMSO-water (70:30, vol/vol) at 25°C as described previously ([22]). […]

[3] = biological target: fungal plasma membrane H^+-ATPase (Saccharomyces cerevisiae, UniProt P05030); experiment: H+-ATPase-inhibitory activity; format: biochemical
[4] = tested on: Aspergillus flavus ATCC 15547; experiment: Antifungal susceptibility testing (MIC); format: cell-based; settings: ATCC15547, no visible growth, 48 to 72 h, 34°C
Method: as §1

[5] = tested on: Rhizopus oryzae ATCC 34965; experiment: Antifungal susceptibility testing (MIC); format: cell-based; settings: Rhizopus arrhizus, ATCC34965; no visible growth, 48 to 72 h, 34°C
Method: as §1

[6] = tested on: Aspergillus fumigatus ATCC 13073; experiment: Antifungal susceptibility testing (MIC); format: cell-based; settings: ATCC13073, no visible growth, 48 to 72 h, 34°C
Method: as §1

C. tropicalis Ct016 = experiment: Antifungal susceptibility testing (MIC); format: cell-based; settings: Candida tropicalis, at least 50% growth inhibition, RPMI, 24 h, 34°C
Method: as §1

[7] = tested on: Mucor indicus ATCC MYA-4678; experiment: Antifungal susceptibility testing (MIC); format: cell-based; settings: no visible growth, 48 to 72 h, 34°C
Method: as §1

[8] = tested on: Aspergillus terreus At070; experiment: Antifungal susceptibility testing (MIC); format: cell-based; settings: no visible growth, 48 to 72 h, 34°C
Method: as §1

[9] = tested on: Rhizopus microsporus ATCC 66276; experiment: Antifungal susceptibility testing (MIC); format: cell-based; settings: ATCC66276, no visible growth, 48 to 72 h, 34°C
Method: as §1

[10] = Solubility in water at millimolar concentrations; format: physicochemical

fungal plasma membrane H^+-ATPase, sequence (P05030 whole entry): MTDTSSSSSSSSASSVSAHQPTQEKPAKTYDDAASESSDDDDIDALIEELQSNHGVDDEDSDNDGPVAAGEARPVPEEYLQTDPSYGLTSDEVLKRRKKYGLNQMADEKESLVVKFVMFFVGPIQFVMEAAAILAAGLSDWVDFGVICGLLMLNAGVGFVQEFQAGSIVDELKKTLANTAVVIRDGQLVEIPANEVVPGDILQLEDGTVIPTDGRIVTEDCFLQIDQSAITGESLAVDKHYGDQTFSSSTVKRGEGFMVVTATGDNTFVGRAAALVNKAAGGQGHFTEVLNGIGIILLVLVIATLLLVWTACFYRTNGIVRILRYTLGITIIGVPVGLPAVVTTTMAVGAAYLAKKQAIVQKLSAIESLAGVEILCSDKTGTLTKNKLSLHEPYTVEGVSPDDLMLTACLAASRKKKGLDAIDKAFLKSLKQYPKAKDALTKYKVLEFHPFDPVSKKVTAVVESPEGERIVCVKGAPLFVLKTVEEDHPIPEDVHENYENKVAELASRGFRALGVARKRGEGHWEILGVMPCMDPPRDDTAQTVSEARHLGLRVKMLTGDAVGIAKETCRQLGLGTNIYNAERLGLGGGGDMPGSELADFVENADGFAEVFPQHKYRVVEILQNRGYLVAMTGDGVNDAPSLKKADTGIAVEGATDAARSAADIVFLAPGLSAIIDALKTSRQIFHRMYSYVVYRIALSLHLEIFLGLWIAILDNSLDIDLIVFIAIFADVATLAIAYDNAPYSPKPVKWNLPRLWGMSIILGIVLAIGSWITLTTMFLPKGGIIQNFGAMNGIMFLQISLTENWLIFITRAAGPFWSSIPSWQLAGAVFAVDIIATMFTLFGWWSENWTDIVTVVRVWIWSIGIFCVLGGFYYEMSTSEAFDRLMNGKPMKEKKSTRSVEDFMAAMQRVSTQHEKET

Row | SMILES | MIC [1] [µg/mL] | effect of exogenous addition of zinc or copper on the antifungal effects (Candida albicans) | fungal growth rate compared to control cells (Candida albicans) | MIC (C. krusei ATCC 6258) [µg/mL] | Ca^2+ binding [2] | H^+-ATPase-inhibitory activity [3] | MIC [4] [µg/mL] | MIC [5] [µg/mL] | MIC [6] [µg/mL] | MIC (C. tropicalis Ct016) [µg/mL] | MIC [7] [µg/mL] | MIC [8] [µg/mL] | MIC [9] [µg/mL] | solubility in water [10]
1 | Cc1cc(O)n(-c2cc(N3CC[C@H](Oc4cnccc4C#N)C3)ncn2)n1 [ZAC989, 3-[(3S)-1-[6-(5-hydroxy-3-methyl-pyrazol-1-yl)pyrimidin-4-yl]pyrrolidin-3-yl]oxy-pyridine-4-carbonitrile] | 0.8 (≈ 2.2 µM) | reversed | approximately 50% | 0.8 (≈ 2.2 µM) | negligible | lacked H^+-ATPase-inhibitory activity | 5.1 (≈ 14 µM) | 1.7 (≈ 4.68 µM) | 5.4 (≈ 14.9 µM) | 0.9 (≈ 2.48 µM) | 1.1 (≈ 3.03 µM) | 1.6 (≈ 4.4 µM) | 0.5 (≈ 1.38 µM) | poor solubility in water
2 | CN(C)c1cc(-n2nc(-c3ccccc3)cc2O)ncn1 [ZAC307, 2-[6-(dimethylamino)pyrimidin-4-yl]-5-phenyl-pyrazol-3-ol] | 0.4 (≈ 1.42 µM) | reversed | approximately 50% | 0.4 (≈ 1.42 µM) | negligible | lacked H^+-ATPase-inhibitory activity | 1.3 (≈ 4.62 µM) | 1.3 (≈ 4.62 µM) | 4 (≈ 14.2 µM) | 0.4 (≈ 1.42 µM) | 1.3 (≈ 4.62 µM) | 1.3 (≈ 4.62 µM) | 0.4 (≈ 1.42 µM) | poor solubility in water
